According to patent publication US10894036B2, “Use of marizomib for the treatment of central nervous system (CNS) cancers” (Celgene International II Sàrl, priority 2016, dated 2021):

Test: Phase 1/2 MRZ + BEV and MRZ monotherapy in recurrent G4 MG: adverse events, DLT
[1] = MRZ+BEV, 36 pts, as of 12 Sep. 2016

Procedure: The clinical trial was a Phase 1, dose-escalation (3+3 design) followed by dose-expansion at recommended Phase 2 Dose (RP2D).
The drugs were infused on 28-Day Cycles. Tumor response is assessed every other cycle by RANO criteria.
The safety data will be presented in individual listings and summary tables, including frequency tables for adverse events and frequency and shift tables for laboratory variables. The safety population will be all subjects who received at least one dose of either study drug in Phase 1 or MRZ in Phase 2.

C[C@@]12OC(=O)[C@]1([C@@H](O)[C@@H]1C=CCCC1)NC(=O)[C@@H]2CCCl [marizomib]
11: Hallucination: # pts, related to MRZ (MRZ+BEV, 12 Sep. 2016) | Hallucination: # patients, AE related to labelled agent (BEV, MRZ, Both) [1]
0: Anxiety: # pts, related to MRZ (MRZ+BEV, 12 Sep. 2016) | Aphasia: # pts, related to MRZ (MRZ+BEV, 12 Sep. 2016) | Appendicitis Perforated: # pts, related to MRZ (MRZ+BEV, 12 Sep. 2016) | Asthenia: # pts, related to MRZ (MRZ+BEV, 12 Sep. 2016) | Convulsion: # pts, related to MRZ (MRZ+BEV, 12 Sep. 2016) | Depressed Level of Consciousness: # pts, related to MRZ (MRZ+BEV, 12 Sep. 2016) | Dysphagia: # pts, related to MRZ (MRZ+BEV, 12 Sep. 2016) | Dysphonia: # pts, related to MRZ (MRZ+BEV, 12 Sep. 2016) | Dyspnoea: # pts, related to MRZ (MRZ+BEV, 12 Sep. 2016) | Ear Infection: # pts, related to MRZ (MRZ+BEV, 12 Sep. 2016) | Embolism: # pts, related to MRZ (MRZ+BEV, 12 Sep. 2016) | Epistaxis: # pts, related to MRZ (MRZ+BEV, 12 Sep. 2016) | Fracture of Femur: # pts, related to MRZ (MRZ+BEV, 12 Sep. 2016) | Haemorrhage Intracranial: # pts, related to MRZ (MRZ+BEV, 12 Sep. 2016) | Hemiparesis: # pts, related to MRZ (MRZ+BEV, 12 Sep. 2016) | Hyperglycemia: # pts, related to MRZ (MRZ+BEV, 12 Sep. 2016) | Hypertension: # pts, related to MRZ (MRZ+BEV, 12 Sep. 2016) | Hypokalemia: # pts, related to MRZ (MRZ+BEV, 12 Sep. 2016) | Hypotension: # pts, related to MRZ (MRZ+BEV, 12 Sep. 2016) | Lymphocyte Count Decreased: # pts, related to MRZ (MRZ+BEV, 12 Sep. 2016) | Optic Nerve Disorder: # pts, related to MRZ (MRZ+BEV, 12 Sep. 2016) | Pyramidal Tract Syndrome: # pts, related to MRZ (MRZ+BEV, 12 Sep. 2016) | Tumor Metastasis: # pts, related to MRZ (MRZ+BEV, 12 Sep. 2016) | Aphasia: # events related to MRZ (MRZ+BEV, 17 May 2016) | Appendicitis Perforated: # events related to MRZ (MRZ+BEV, 17 May 2016) | Asthenia: # events related to MRZ (MRZ+BEV, 17 May 2016) | Convulsion: # events related to MRZ (MRZ+BEV, 17 May 2016) | Dysphagia: # events related to MRZ (MRZ+BEV, 17 May 2016) | Dysphonia: # events related to MRZ (MRZ+BEV, 17 May 2016) | Dyspnoea: # events related to MRZ (MRZ+BEV, 17 May 2016) | Ear Infection: # events related to MRZ (MRZ+BEV, 17 May 2016) | Embolism: # events related to MRZ (MRZ+BEV, 17 May 2016) | Epistaxis: # events related to MRZ (MRZ+BEV, 17 May 2016) | Haemorrhage Intracranial: # events related to MRZ (MRZ+BEV, 17 May 2016) | Hemiparesis: # events related to MRZ (MRZ+BEV, 17 May 2016) | Hyperglycemia: # events related to MRZ (MRZ+BEV, 17 May 2016) | Hypertension: # events related to MRZ (MRZ+BEV, 17 May 2016) | Hypotension: # events related to MRZ (MRZ+BEV, 17 May 2016) | Lymphocyte Count Decreased: # events related to MRZ (MRZ+BEV, 17 May 2016) | Pyramidal Tract Syndrome: # events related to MRZ (MRZ+BEV, 17 May 2016) | Anxiety: # patients, AE related to labelled agent (BEV, MRZ, Both) [1] | Aphasia: # patients, AE related to labelled agent (BEV, MRZ, Both) [1] | Appendicitis Perforated: # patients, AE related to labelled agent (BEV, MRZ, Both) [1] | Asthenia: # patients, AE related to labelled agent (BEV, MRZ, Both) [1] | Convulsion: # patients, AE related to labelled agent (BEV, MRZ, Both) [1] | Depressed Level of Consciousness: # patients, AE related to labelled agent (BEV, MRZ, Both) [1] | Dysphagia: # patients, AE related to labelled agent (BEV, MRZ, Both) [1] | Dysphonia: # patients, AE related to labelled agent (BEV, MRZ, Both) [1] | Dyspnoea: # patients, AE related to labelled agent (BEV, MRZ, Both) [1] | Ear Infection: # patients, AE related to labelled agent (BEV, MRZ, Both) [1] | Embolism: # patients, AE related to labelled agent (BEV, MRZ, Both) [1] | Epistaxis: # patients, AE related to labelled agent (BEV, MRZ, Both) [1] | Fracture of Femur: # patients, AE related to labelled agent (BEV, MRZ, Both) [1] | Haemorrhage Intracranial: # patients, AE related to labelled agent (BEV, MRZ, Both) [1] | Hemiparesis: # patients, AE related to labelled agent (BEV, MRZ, Both) [1] | Hyperglycemia: # patients, AE related to labelled agent (BEV, MRZ, Both) [1] | Hypertension: # patients, AE related to labelled agent (BEV, MRZ, Both) [1] | Hypokalemia: # patients, AE related to labelled agent (BEV, MRZ, Both) [1] | Hypotension: # patients, AE related to labelled agent (BEV, MRZ, Both) [1] | Lymphocyte Count Decreased: # patients, AE related to labelled agent (BEV, MRZ, Both) [1] | Optic Nerve Disorder: # patients, AE related to labelled agent (BEV, MRZ, Both) [1] | Pyramidal Tract Syndrome: # patients, AE related to labelled agent (BEV, MRZ, Both) [1] | Tumor Metastasis: # patients, AE related to labelled agent (BEV, MRZ, Both) [1]
5: Headache: # pts, related to MRZ (MRZ+BEV, 12 Sep. 2016) | Constipation: # events related to MRZ (MRZ+BEV, 17 May 2016) | Headache: # patients, AE related to labelled agent (BEV, MRZ, Both) [1]
Four: patients with marizomib-related serious adverse events (MRZ + BEV, N = 36)
9: Diarrhoea: # pts, related to MRZ (MRZ+BEV, 12 Sep. 2016) | Anaemia: # events related to MRZ (MRZ+BEV, 17 May 2016) | Diarrhoea: # patients, AE related to labelled agent (BEV, MRZ, Both) [1]
10: Ataxia: # events related to MRZ (MRZ+BEV, 17 May 2016)
3: confusional state, marizomib-related adverse events ≥3, patients (MRZ + BEV, N = 36) | headache, marizomib-related adverse events ≥3, patients (MRZ + BEV, N = 36) | Falls: # pts, related to MRZ (MRZ+BEV, 12 Sep. 2016) | Vision Blurred: # pts, related to MRZ (MRZ+BEV, 12 Sep. 2016) | Muscular Weakness: # events related to MRZ (MRZ+BEV, 17 May 2016) | Falls: # patients, AE related to labelled agent (BEV, MRZ, Both) [1] | Vision Blurred: # patients, AE related to labelled agent (BEV, MRZ, Both) [1]
generally well tolerated: tolerability (in combination with BEV and as monotherapy)
8: Dizziness: # pts, related to MRZ (MRZ+BEV, 12 Sep. 2016) | Confusional State: # events related to MRZ (MRZ+BEV, 17 May 2016) | Dizziness: # patients, AE related to labelled agent (BEV, MRZ, Both) [1]
6: Anaemia: # pts, related to MRZ (MRZ+BEV, 12 Sep. 2016) | Ataxia: # pts, related to MRZ (MRZ+BEV, 12 Sep. 2016) | Confusional State: # pts, related to MRZ (MRZ+BEV, 12 Sep. 2016) | Infusion Site Pain: # pts, related to MRZ (MRZ+BEV, 12 Sep. 2016) | Headache: # events related to MRZ (MRZ+BEV, 17 May 2016) | Anaemia: # patients, AE related to labelled agent (BEV, MRZ, Both) [1] | Ataxia: # patients, AE related to labelled agent (BEV, MRZ, Both) [1] | Confusional State: # patients, AE related to labelled agent (BEV, MRZ, Both) [1] | Infusion Site Pain: # patients, AE related to labelled agent (BEV, MRZ, Both) [1]
1: Delusion: # pts, related to MRZ (MRZ+BEV, 12 Sep. 2016) | Dysarthria: # pts, related to MRZ (MRZ+BEV, 12 Sep. 2016) | Fatigue: # pts, related to MRZ (MRZ+BEV, 12 Sep. 2016) | Hyponatremia: # pts, related to MRZ (MRZ+BEV, 12 Sep. 2016) | Insomnia: # pts, related to MRZ (MRZ+BEV, 12 Sep. 2016) | Delusion: # events related to MRZ (MRZ+BEV, 17 May 2016) | Dysarthria: # events related to MRZ (MRZ+BEV, 17 May 2016) | Fatigue: # events related to MRZ (MRZ+BEV, 17 May 2016) | Hypokalemia: # events related to MRZ (MRZ+BEV, 17 May 2016) | Insomnia: # events related to MRZ (MRZ+BEV, 17 May 2016) | Delusion: # patients, AE related to labelled agent (BEV, MRZ, Both) [1] | Dysarthria: # patients, AE related to labelled agent (BEV, MRZ, Both) [1] | Fatigue: # patients, AE related to labelled agent (BEV, MRZ, Both) [1] | Hyponatremia: # patients, AE related to labelled agent (BEV, MRZ, Both) [1] | Insomnia: # patients, AE related to labelled agent (BEV, MRZ, Both) [1]
16: Hallucination: # events related to MRZ (MRZ+BEV, 17 May 2016) | Vomiting: # events related to MRZ (MRZ+BEV, 17 May 2016)
4: Constipation: # pts, related to MRZ (MRZ+BEV, 12 Sep. 2016) | Constipation: # patients, AE related to labelled agent (BEV, MRZ, Both) [1]
13: Dizziness: # events related to MRZ (MRZ+BEV, 17 May 2016)
19: Nausea: # pts, related to MRZ (MRZ+BEV, 12 Sep. 2016) | Nausea: # patients, AE related to labelled agent (BEV, MRZ, Both) [1]
36: Nausea: # events related to MRZ (MRZ+BEV, 17 May 2016)
2: Muscular Weakness: # pts, related to MRZ (MRZ+BEV, 12 Sep. 2016) | Muscular Weakness: # patients, AE related to labelled agent (BEV, MRZ, Both) [1]
12: Vomiting: # pts, related to MRZ (MRZ+BEV, 12 Sep. 2016) | Diarrhoea: # events related to MRZ (MRZ+BEV, 17 May 2016) | Vomiting: # patients, AE related to labelled agent (BEV, MRZ, Both) [1]
